What was measured:
bvFTD patients [1] = assay: Modified-CGIC, 52-week Phase III trial; type: in vivo, human
Source text: (§1) The two doses were provided in identical blister packages as visually identical oral tablets to be taken for up to 52 weeks. The primary outcome was the Addenbrookes Cognitive Examination – Revised (ACE-R). The Functional Activities Questionnaire (FAQ) and reduction in progression of whole brain atrophy were alternative co-primary outcomes. Other outcomes included: Modified Alzheimer’s Disease Cooperative Study – Clinical Global Impression of Change (Modified-CGIC) determined by a third independent rater; Frontotemporal Dementia Rating Scale (FRS); MMSE (from MMSE items incorporated into ACE-R); Addenbrookes Cognitive Examination – III (a revised version of ACE-R which excludes MMSE items subject to copyright restrictions); change in brain volume measured by MRI in frontal and temporal lobes (FTV) and lateral ventricles (LVV); and the effect of hydromethylthionine in patients with known genetic mutations associated with bvFTD. Blood was collected prospectively for the purpose of population PK analyses.
The primary analyses were specified as a mixed model, repeated-measures analysis with an unstructured covariance matrix and no imputation for missing data. The model included visit (three levels corresponding to assessments at weeks 16, 32, and 52), treatment group (two levels, 4 mg or 100 mg twice a day), a visit by treatment group interaction term, use of AD-labelled medications (two levels, using or not using), geographic region (three levels: North America, Asia/Australia, Europe), and baseline value of the variable analyzed. The individual comparisons were implemented through contrasts. The Bonferroni-Holm correction was used to take account of multiplicity arising from alternative co-primary outcomes (FAQ and whole brain atrophy). We used the same method for all secondary analyses in predefined gated sequences such that no further adjustment of alpha (0.05) was needed.
The concentration-response analyses used a Mixed-effect Model Repeat Measurement (MMRM) with per-subject correction and an unstructured covariance matrix according to the following formula: […]

[2] = tested on: P-glycoprotein (P-gp) transporter; set-up: method as in Investigator's Brochure; settings: ref Investigator's Brochure; cited from earlier work
bvFTD patients [3] = assay: Frontotemporal volume (FTV) change by MRI (Tensor-Based Morphometry); type: in vivo, human; settings: Patients receiving 8 mg/day, vs Cmax,ss ≤[…], 52 weeks
Source text: as §1
MRI scans were obtained at screening and weeks 16, 32, and 52. The acquisition protocol was standardized across sites and all data were centrally collected, quality-controlled, and analyzed by the imaging core laboratory (Bioclinica). MRI data included a 3D sagittal T1-weighted sequence (using parameters compatible with the ADNI protocol) which was used for all volumetric analyses. […]

bvFTD patients [4] = assay: Whole brain volume (WBV) change by MRI (Boundary Shift Integral); type: in vivo, human
Source text: as §1
MRI scans were obtained at screening and weeks 16, 32, and 52. The acquisition protocol was standardized across sites and all data were centrally collected, quality-controlled, and analyzed by the imaging core laboratory (Bioclinica). […] For data passing quality-control, baseline volume was automatically assessed using FreeSurfer v5.3, while volume changes were assessed using Boundary Shift Integral (whole brain, lateral ventricles) and Tensor-Based Morphometry (frontal and temporal lobes). […]
The primary analyses were specified as a mixed model, repeated-measures analysis with an unstructured covariance matrix and no imputation for missing data. The model included visit (three levels corresponding to assessments at weeks 16, 32, and 52), treatment group (two levels, 4 mg or 100 mg twice a day), a visit by treatment group interaction term, use of AD-labelled medications (two levels, using or not using), geographic region (three levels: North America, Asia/Australia, Europe), and baseline value of the variable analyzed. […]

bvFTD patients [5] = assay: Frontotemporal Dementia Rating Scale (FRS), 52-week Phase III trial; type: in vivo, human
Source text: as §1
The primary analyses were specified as a mixed model, repeated-measures analysis with an unstructured covariance matrix and no imputation for missing data. […]

[6] = 8 mg/day, plasma levels above vs below […] threshold
[7] = 200 mg/day (n = 104) vs 8 mg/day, 52 weeks

## CN(C)c1ccc2c(c1)Sc1cc(N(C)C)ccc1N2 [hydromethylthionine, leuco-methylthioninium bis(hydromethanesulphonate)]
bvFTD patients [1]; 8 mg/day (n = 110), 52 weeks
  CGIC: Decline±SEM for LMTM 8 mg/day group: –1.05±0.11
bvFTD patients [1]; [6]
  reduction in decline, Modified-CGIC: 48%
bvFTD patients [1]; [7]
  CGIC: Difference±SEM from LMTM 8 mg/day for 200 mg/day: –0.04±0.16
[2]
  effect of coadministration on digoxin (P-gp substrate): decreased concentrations
  induction of P-glycoprotein (P-gp) transporter: w eak in ducer
bvFTD patients [3]
  FTV: Difference±SEM for Cmax,ss > […]: 0.72±0.27 cm^3
bvFTD patients [4]; 8 mg/day, modeled change from baseline at 52 weeks
  WBV: Decline±SEM for LMTM 8 mg/day group: –21.64±1.56 cm^3
bvFTD patients [4]; [6]
  reduction in whole brain atrophy: 42%
bvFTD patients [4]; 200 mg/day vs 8 mg/day, 52 weeks
  WBV: Difference±SEM from LMTM 8 mg/day for 200 mg/day: –1.35±2.32 cm^3
bvFTD patients [5]; 8 mg/day (n = 110), modeled change from baseline at 52 weeks
  FRS: Decline±SEM for LMTM 8 mg/day group: –0.1240±0.0136
bvFTD patients [5]; [7]
  FRS: Difference±SEM from LMTM 8 mg/day for 200 mg/day: 0.0075±0.0206

From article PMC7306898, “Concentration-Dependent Activity of Hydromethylthionine on Clinical Decline and Brain Atrophy in a Randomized Controlled Trial in Behavioral Variant Frontotemporal Dementia” (Journal of Alzheimer's Disease, 2020)
